{
  "source": "ChEMBL document CHEMBL1201862",
  "about": "“PubChem BioAssay data set” (2004)",
  "key": {"Bcl-2-like protein 10": {"biological_target": "Bcl-2-like protein 10 (Homo sapiens, UniProt Q9HD36)", "sequence (Q9HD36 whole entry)": "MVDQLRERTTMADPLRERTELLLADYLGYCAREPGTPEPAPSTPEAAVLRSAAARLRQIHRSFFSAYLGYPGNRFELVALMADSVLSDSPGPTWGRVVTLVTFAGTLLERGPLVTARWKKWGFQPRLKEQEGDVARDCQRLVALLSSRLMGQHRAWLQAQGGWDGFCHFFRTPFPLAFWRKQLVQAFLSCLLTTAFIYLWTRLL", "experiment": "Bcl-B/TR3 peptide binding disruption – biochemical, fluorescence polarization, FITC-TR3 peptide, selectivity assay for Bfl-1 inhibitor project, primary screen (AID 748);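 also: fluorescence polarization from a fluorescein-labelled TR3 peptide binding purified Bcl-B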"}, "Cytochrome P450 2D6": {"biological_target": "Cytochrome P450 2D6 (Homo sapiens, UniProt P10635)", "sequence (P10635 whole entry)": "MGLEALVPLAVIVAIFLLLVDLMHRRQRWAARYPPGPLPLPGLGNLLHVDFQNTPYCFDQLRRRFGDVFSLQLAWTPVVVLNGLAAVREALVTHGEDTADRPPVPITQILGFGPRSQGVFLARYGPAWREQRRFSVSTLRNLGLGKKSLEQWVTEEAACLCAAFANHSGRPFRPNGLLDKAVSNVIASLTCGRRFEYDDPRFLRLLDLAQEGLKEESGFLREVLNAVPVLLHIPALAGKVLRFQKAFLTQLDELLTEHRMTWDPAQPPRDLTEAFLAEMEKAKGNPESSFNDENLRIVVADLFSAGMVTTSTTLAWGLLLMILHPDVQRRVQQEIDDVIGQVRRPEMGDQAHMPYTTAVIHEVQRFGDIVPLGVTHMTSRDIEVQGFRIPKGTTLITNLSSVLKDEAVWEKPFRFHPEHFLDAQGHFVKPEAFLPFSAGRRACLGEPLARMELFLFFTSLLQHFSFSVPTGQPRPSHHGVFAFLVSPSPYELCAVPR"}, "Protein RecA": {"biological_target": "T1, Protein RecA (Mycobacterium tuberculosis, UniProt P9WHJ3)", "T1 sequence (P9WHJ3 whole entry)": "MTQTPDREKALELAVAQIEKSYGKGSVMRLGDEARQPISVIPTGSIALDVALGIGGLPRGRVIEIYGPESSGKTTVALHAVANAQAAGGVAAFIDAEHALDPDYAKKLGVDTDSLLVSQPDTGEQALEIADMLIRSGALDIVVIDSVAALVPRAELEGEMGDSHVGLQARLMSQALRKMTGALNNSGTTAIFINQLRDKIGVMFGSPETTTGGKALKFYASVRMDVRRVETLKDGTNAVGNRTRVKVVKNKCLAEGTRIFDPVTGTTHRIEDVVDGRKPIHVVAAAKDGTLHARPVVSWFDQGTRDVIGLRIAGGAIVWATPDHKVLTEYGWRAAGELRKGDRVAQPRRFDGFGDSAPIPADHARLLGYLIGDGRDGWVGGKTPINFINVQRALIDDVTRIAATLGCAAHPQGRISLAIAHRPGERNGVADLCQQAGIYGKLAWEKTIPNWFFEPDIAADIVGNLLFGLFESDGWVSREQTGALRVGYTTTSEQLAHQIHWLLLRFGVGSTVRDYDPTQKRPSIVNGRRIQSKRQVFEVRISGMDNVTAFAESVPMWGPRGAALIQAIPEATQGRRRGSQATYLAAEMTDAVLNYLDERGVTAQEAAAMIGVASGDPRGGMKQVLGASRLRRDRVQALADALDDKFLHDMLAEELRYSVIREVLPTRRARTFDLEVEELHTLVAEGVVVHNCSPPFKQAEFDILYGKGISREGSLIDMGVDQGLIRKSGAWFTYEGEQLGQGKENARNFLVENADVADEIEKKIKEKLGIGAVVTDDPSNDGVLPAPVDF", "experiment": "Fluorescence Cell-Free Homogeneous Dose Retest to Identify Inhibitors of RecA-Intein Splicing Activity. [Related pubchem assays (depositor defined):AID2097, AID2223, AID489010, AID492950]", "type": "functional"}, "Cytochrome P450 2C19": {"biological_target": "Cytochrome P450 2C19 (Homo sapiens, UniProt P33261)", "sequence (P33261 whole entry)": "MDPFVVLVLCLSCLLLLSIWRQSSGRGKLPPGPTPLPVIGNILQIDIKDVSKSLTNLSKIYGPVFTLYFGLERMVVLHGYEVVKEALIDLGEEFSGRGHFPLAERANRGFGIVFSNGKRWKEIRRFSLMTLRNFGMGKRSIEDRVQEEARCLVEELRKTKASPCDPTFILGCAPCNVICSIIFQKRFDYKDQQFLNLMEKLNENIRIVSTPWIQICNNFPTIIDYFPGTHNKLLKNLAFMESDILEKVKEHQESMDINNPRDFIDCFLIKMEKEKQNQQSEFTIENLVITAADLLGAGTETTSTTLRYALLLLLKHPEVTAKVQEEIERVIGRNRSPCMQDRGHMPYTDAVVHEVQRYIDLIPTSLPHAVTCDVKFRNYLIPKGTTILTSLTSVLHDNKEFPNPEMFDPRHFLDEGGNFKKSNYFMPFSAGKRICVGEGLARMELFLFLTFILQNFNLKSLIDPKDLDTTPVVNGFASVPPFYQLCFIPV", "experiment": "Cytochrome panel assay with activity outcomes. Panel member name: p450-cyp2c19 Compounds with AC50 equal or less than 10 uM are considered active", "type": "functional", "settings": "read-out: AC50"}, "[1]": {"biological_target": "T2, Replicative DNA helicase DnaB (Mycobacterium tuberculosis, UniProt P9WMR3)", "T2 sequence (P9WMR3 whole entry)": "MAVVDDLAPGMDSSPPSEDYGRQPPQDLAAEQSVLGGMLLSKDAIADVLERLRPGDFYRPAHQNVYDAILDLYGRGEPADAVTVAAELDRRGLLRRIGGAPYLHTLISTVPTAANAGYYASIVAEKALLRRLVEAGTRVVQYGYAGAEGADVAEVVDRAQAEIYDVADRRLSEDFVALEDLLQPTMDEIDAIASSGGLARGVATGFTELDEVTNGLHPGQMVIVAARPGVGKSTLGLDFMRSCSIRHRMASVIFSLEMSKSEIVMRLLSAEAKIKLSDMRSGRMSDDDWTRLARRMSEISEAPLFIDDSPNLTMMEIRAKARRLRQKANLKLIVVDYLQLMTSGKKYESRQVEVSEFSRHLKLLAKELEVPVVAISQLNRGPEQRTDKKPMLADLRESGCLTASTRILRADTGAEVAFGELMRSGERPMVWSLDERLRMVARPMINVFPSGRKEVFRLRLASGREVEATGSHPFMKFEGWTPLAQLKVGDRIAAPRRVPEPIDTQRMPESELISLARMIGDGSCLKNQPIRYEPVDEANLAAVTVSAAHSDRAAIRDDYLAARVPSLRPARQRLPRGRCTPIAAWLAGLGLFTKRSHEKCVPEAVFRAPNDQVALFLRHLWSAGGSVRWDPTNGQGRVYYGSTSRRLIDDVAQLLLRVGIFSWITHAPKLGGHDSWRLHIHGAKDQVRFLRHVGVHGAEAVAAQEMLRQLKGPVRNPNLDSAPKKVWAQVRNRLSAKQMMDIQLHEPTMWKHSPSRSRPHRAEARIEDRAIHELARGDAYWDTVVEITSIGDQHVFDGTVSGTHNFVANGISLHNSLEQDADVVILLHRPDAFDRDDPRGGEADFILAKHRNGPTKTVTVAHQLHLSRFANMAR", "experiment": "DnaB intein splicing inhibitors, dose response, biochemical, cell-free fluorescence (AID 449749)", "type": "functional"}, "Cytochrome P450 3A4": {"biological_target": "Cytochrome P450 3A4 (Homo sapiens, UniProt P08684)", "sequence (P08684 whole entry)": "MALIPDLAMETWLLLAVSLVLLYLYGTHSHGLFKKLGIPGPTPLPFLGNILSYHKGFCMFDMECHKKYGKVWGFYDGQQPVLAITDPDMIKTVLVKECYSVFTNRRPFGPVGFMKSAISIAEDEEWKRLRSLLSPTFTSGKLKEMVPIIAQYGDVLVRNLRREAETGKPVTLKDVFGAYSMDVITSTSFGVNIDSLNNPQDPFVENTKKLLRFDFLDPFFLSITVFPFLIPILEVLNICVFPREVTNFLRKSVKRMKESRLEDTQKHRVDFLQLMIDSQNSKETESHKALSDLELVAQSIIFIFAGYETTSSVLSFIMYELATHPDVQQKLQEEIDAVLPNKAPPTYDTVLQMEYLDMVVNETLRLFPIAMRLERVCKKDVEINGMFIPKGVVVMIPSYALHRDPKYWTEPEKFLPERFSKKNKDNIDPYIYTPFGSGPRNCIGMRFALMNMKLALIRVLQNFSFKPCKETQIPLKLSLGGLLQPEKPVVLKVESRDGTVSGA"}, "[2]": {"experiment": "Luminescence Cell-Based Dose Response HTS to Identify Inhibitors of 5'UTR Stem-Loop Driven Prion Protein mRNA Translation in H4 Neuroglioblastoma Cells. [Related pubchem assays: 1827 (Project Summary), 1813 (Primary HTS)]", "type": "functional"}, "[3]": {"experiment": "luciferase reporter signal suppression in cells – H4 neuroglioma cells, luminescence, dose response (AID 1990)", "type": "functional, cell-based"}, "[4]": {"biological_target": "G-protein coupled receptor 55 (Homo sapiens, UniProt Q9Y2T6)", "sequence (Q9Y2T6 whole entry)": "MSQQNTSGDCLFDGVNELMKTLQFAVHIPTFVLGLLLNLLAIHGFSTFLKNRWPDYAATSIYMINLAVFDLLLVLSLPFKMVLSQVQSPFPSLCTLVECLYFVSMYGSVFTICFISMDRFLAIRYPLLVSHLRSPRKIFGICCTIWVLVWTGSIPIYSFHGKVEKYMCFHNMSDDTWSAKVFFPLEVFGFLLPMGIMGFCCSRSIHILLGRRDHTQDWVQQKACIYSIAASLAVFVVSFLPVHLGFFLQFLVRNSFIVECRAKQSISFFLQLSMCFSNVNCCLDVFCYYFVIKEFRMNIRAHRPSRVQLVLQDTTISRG", "experiment": "inhibition of LPI-stimulated GPR55 beta-arrestin translocation – imaging, U2OS, beta-arrestin-GFP, LPI agonist, primary screen (AID 2013);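 also: antagonist potency measured as reduced agonist-driven arrestin aggregation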", "type": "functional"}, "[5]": {"biological_target": "G-protein coupled receptor 35 (Homo sapiens, UniProt Q9HC97)", "sequence (Q9HC97 whole entry)": "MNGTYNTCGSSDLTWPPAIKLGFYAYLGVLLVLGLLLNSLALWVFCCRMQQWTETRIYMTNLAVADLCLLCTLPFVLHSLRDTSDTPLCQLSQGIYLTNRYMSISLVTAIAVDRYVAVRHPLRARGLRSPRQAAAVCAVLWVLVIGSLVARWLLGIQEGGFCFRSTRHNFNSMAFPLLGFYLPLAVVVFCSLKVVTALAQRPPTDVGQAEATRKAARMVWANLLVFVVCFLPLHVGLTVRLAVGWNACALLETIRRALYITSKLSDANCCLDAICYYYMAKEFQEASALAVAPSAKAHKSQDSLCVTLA", "experiment": "inhibition of zaprinast-stimulated GPR35 beta-arrestin translocation – imaging, U2OS, beta-arrestin-GFP, zaprinast agonist, primary screen (AID 2058);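 also: antagonist potency meaning inhibition of agonist-induced arrestin redistribution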", "type": "functional"}, "[6]": {"experiment": "alpha-synuclein stem-loop luciferase translation blockers – H4 neuroglioma cells, luminescence, confirmation (AID 1988)", "type": "functional, cell-based"}, "Coagulation factor XII": {"biological_target": "T3, Coagulation factor XII (Homo sapiens, UniProt P00748)", "T3 sequence (P00748 whole entry)": "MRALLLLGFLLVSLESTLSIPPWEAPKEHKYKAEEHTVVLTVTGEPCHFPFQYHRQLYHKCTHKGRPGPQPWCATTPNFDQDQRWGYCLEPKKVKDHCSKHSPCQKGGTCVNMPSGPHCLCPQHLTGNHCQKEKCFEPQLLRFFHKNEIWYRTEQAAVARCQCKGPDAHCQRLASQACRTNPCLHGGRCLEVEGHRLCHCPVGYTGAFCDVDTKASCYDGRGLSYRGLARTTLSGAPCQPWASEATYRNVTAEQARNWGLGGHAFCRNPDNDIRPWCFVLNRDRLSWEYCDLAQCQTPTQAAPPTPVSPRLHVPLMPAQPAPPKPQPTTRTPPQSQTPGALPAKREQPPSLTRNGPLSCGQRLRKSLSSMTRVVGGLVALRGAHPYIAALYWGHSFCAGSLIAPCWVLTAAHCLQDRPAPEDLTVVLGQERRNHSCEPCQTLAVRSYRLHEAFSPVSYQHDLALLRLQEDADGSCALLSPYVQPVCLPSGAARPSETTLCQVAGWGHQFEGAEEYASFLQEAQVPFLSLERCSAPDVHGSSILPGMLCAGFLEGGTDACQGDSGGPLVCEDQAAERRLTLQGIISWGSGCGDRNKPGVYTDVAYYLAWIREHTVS", "experiment": "activated coagulation factor XII inhibitor potency, concentration-effect curve, cell-free (AID 716)", "type": "functional"}},
  "note": "Active and inactive are the calls of the source.",
  "data": [
    {"smiles": "Cc1cnnn1-c1ccc(C(=O)CCl)cc1", "values": [
      {"measurement": "IC50", "setting": "Bcl-2-like protein 10", "result": "> 50 µM (inactive)"},
      {"measurement": "AC50", "setting": "Cytochrome P450 2D6", "result": "0.0794 µM (inconclusive)"},
      {"measurement": "EC50", "setting": "Protein RecA", "result": "11.3 µM (active)"},
      {"measurement": "AC50", "setting": "Cytochrome P450 2C19", "result": "39.8 µM (inconclusive)"},
      {"measurement": "AC50", "setting": "[1]", "result": "29.1 µM (active)"},
      {"measurement": "AC50", "setting": "Cytochrome P450 3A4", "result": "25.1 µM (inconclusive)"}
    ]},
    {"smiles": "Oc1ccc(/C=N/Nc2nc(-c3ccccc3F)nc3ccccc23)c(O)c1", "values": [
      {"measurement": "EC50", "setting": "[2]", "result": "18.4 µM (active)"},
      {"measurement": "EC50", "setting": "[3]", "result": "23.2 µM (active)"},
      {"measurement": "IC50", "setting": "[4]", "result": "1.47 µM (active)"},
      {"measurement": "IC50", "setting": "[5]", "result": "3.08 µM (active)"},
      {"measurement": "EC50", "setting": "[6]", "result": "6.7 µM (active)"}
    ]},
    {"smiles": "Cn1c(COc2ccc(Cl)cc2)nc2ccccc2c1=O", "values": [
      {"measurement": "IC50", "setting": "Coagulation factor XII", "result": "> 50 µM (inactive)"}
    ]}
  ]
}
